Measurements as given in ChEMBL document CHEMBL6109128, “Copper-KRAS-COX2 Axis: A Therapeutic Vulnerability in Pancreatic Cancer” (J Med Chem, 2025).
Each block holds one molecule with its values, some of them ahead of it. Active and inactive are the calls of the source. The calls are words filed in the database; no cut-off is given here.

Experiments:
[1] = Cmax in CD-1 mouse at 15 mg/kg, iv measured up to 24 hrs by LC-MS/MS analysis; type: ADME, organism-based; conditions: in vivo
Panc02 [2] = test: Cytotoxicity against mouse Panc02 cells harboring wild type KRAS; type: functional, cell-based
MIA PaCa-2 [3] = test: Synergistic antiproliferative activity against human MIA PaCa-2 cells assessed as inhibition of colony formation at up to 1 uM in presence of FeCl3; type: functional, cell-based
MIA PaCa-2 [4] = test: Synergistic antiproliferative activity against human MIA PaCa-2 cells assessed as inhibition of colony formation at up to 1 uM incubated for 6 days in presence of MK-663; type: functional, cell-based; conditions: time 6.0 day
HCT-116 [5] = test: Induction of necroptosis in human HCT-116 cells assessed as increase in p-RIP3 level at 10 uM incubated for 1 hr by Western blot analysis; type: functional, cell-based
MIA PaCa-2 [6] = test: Cytotoxicity against human MIA PaCa-2 cells by MTT assay; type: functional, cell-based
[7] = Metabolic stability in mouse liver microsome assessed as half life measured up to 60 mins by LC-MS/MS analysis; type: ADME; conditions: liver microsomes
MIA PaCa-2 [8] = test: Induction of necroptosis in human MIA PaCa-2 cells assessed as increase in p-RIP3 level at 10 uM incubated for 1 hr by Western blot analysis; type: functional, cell-based
KPC2 = test: Synergistic antiproliferative activity against mouse KPC2 cells assessed as inhibition of colony formation at up to 1 uM incubated for 6 days in presence of celecoxib; type: functional, cell-based; conditions: time 6.0 day
HCT-116 [9] = test: Induction of ferroptosis in human HCT-116 cells at up to 1 uM in presence of erastin; type: functional, cell-based
MIA PaCa-2 [10] = test: Synergistic antiproliferative activity against human MIA PaCa-2 cells assessed as inhibition of colony formation at up to 1 uM incubated for 6 days in presence of celecoxib; type: functional, cell-based; conditions: time 6.0 day
HCT-116 [11] = test: Induction of apoptosis in human HCT-116 cells assessed as increase in clonogenic survival up to 1 uM incubated for 6 days in presence of Z-VAD-FMK by crystal violet staining based analysis; type: functional, cell-based; conditions: time 6.0 day
Panc02 [12] = test: Synergistic antiproliferative activity against mouse Panc02 cells harboring wild type KRAS at 0.01 to 3 uM in presence of MRTX1133; type: functional, cell-based; conditions: dose 0.01-3 µM
[13] = AUC in CD-1 mouse at 30 mg/kg, po measured up to 24 hrs by LC-MS/MS analysis; type: ADME, organism-based; conditions: in vivo
HCT-116 [14] = test: Synergistic antiproliferative activity against human HCT-116 cells assessed as inhibition of colony formation at up to 1 uM incubated for 6 days in presence of valdecoxib; type: functional, cell-based; conditions: time 6.0 day
Panc02 [15] = test: Cytotoxicity against mouse Panc02 cells by MTT assay; type: functional, cell-based
HCT-116 [16] = test: Induction of autophagy in human HCT-116 cells assessed as cell death at up to 1 uM incubated for 6 days in presence of bafilomycin-A1; type: functional, cell-based; conditions: time 6.0 day
MIA PaCa-2 [17] = test: Synergistic antiproliferative activity against human MIA PaCa-2 cells assessed as inhibition of colony formation at up to 1 uM incubated for 6 days in presence of valdecoxib; type: functional, cell-based; conditions: time 6.0 day
[18] = Volume of distribution at steady state in CD-1 mouse at 15 mg/kg, iv measured up to 24 hrs by LC-MS/MS analysis; type: ADME, organism-based; conditions: in vivo, read-out: Vdss
HCT-116 [19] = test: Cytotoxicity against human HCT-116 cells assessed as cell death up to 1 uM incubated for 6 days in presence of NAC; type: functional, cell-based; conditions: time 6.0 day
HCT-116 [20] = test: Synergistic antiproliferative activity against human HCT-116 cells assessed as inhibition of colony formation at up to 1 uM incubated for 6 days in presence of celecoxib; type: functional, cell-based; conditions: time 6.0 day
MIA PaCa-2 [21] = test: Induction of apoptosis in human MIA PaCa-2 cells assessed as upregulation of caspase 3 level at 10 uM measured for 48 hrs by Western blot analysis; type: functional, cell-based
BXPC-3 [22] = test: Synergistic antiproliferative activity against human BXPC-3 cells assessed as inhibition of colony formation at up to 1 uM incubated for 6 days in presence of celecoxib; type: functional, cell-based; conditions: time 6.0 day
HCT-116 [23] = test: Synergistic antiproliferative activity against human HCT-116 cells assessed as inhibition of colony formation at up to 1 uM incubated for 6 days in presence of AZD6738; type: functional, cell-based; conditions: time 6.0 day
HCT-116 [24] = test: Synergistic antiproliferative activity against human HCT-116 cells assessed as inhibition of colony formation at up to 1 uM incubated for 6 days in presence of lumi-racoxib; type: functional, cell-based; conditions: time 6.0 day
BXPC-3 [25] = test: Induction of apoptosis in human BXPC-3 cells assessed as increase in clonogenic survival up to 0.5 uM incubated for 6 days in presence of Z-VAD-FMK by crystal violet staining based analysis; type: functional, cell-based; conditions: time 6.0 day
MIA PaCa-2 [26] = test: Synergistic antiproliferative activity against human MIA PaCa-2 cells assessed as inhibition of colony formation at up to 1 uM in presence of ZnCl2; type: functional, cell-based
SU.86.86 = test: Cytotoxicity against human SU-86-86 cells by MTT assay; type: functional, cell-based
MIA PaCa-2 [27] = test: Cytotoxicity against human MIA PaCa-2 cells assessed as cell death up to 1 uM incubated for 6 days in presence of NAC; type: functional, cell-based; conditions: time 6.0 day
MIA PaCa-2 [28] = test: Synergistic antiproliferative activity against human MIA PaCa-2 cells assessed as inhibition of colony formation at up to 1 uM incubated for 6 days in presence of lumira-coxib; type: functional, cell-based; conditions: time 6.0 day
MIA PaCa-2 [29] = test: Induction of apoptosis in human MIA PaCa-2 cells assessed as increase in clonogenic survival up to 0.5 uM incubated for 6 days in presence of necrostatin-1 by crystal violet staining based analysis; type: functional, cell-based; conditions: time 6.0 day
[30] = Half life in CD-1 mouse at 15 mg/kg, iv measured up to 24 hrs by LC-MS/MS analysis; type: ADME, organism-based; conditions: in vivo
HCT-116 [31] = test: Induction of autophagy in human HCT-116 cells assessed as cell death at up to 1 uM incubated for 6 days in presence of MRT68921; type: functional, cell-based; conditions: time 6.0 day
HCT-116 [32] = test: Synergistic antiproliferative activity against human HCT-116 cells assessed as inhibition of colony formation at up to 1 uM incubated for 6 days in presence of rofecoxib; type: functional, cell-based; conditions: time 6.0 day
MIA PaCa-2 [33] = test: Synergistic antiproliferative activity against human MIA PaCa-2 cells assessed as inhibition of colony formation at up to 0.5 uM in presence of CuSO4; type: functional, cell-based
MIA PaCa-2 [34] = test: Induction of ferroptosis in human MIA PaCa-2 cells assessed as cell death at up to 1 uM in presence of […]; type: functional, cell-based
HCT-116 [35] = test: Synergistic antiproliferative activity against human HCT-116 cells assessed as inhibition of colony formation at up to 1 uM incubated for 6 days in presence of CC-115; type: functional, cell-based; conditions: time 6.0 day
MIA PaCa-2 [36] = test: Synergistic antiproliferative activity against human MIA PaCa-2 cells assessed as inhibition of colony formation at up to 1 uM incubated for 6 days in presence of rotec-oxib; type: functional, cell-based; conditions: time 6.0 day
HCT-116 [37] = test: Induction of ferroptosis in human HCT-116 cells assessed as cell death at up to 1 uM in presence of […]; type: functional, cell-based
HCT-116 [38] = test: Synergistic antiproliferative activity against human HCT-116 cells assessed as inhibition of colony formation at up to 1 uM incubated for 6 days in presence of napabucasin; type: functional, cell-based; conditions: time 6.0 day
HCT-116 [39] = test: Induction of apoptosis in human HCT-116 cells assessed as increase in clonogenic survival up to 1 uM incubated for 6 days in presence of necrostatin-1 by crystal violet staining based analysis; type: functional, cell-based; conditions: time 6.0 day

SMILES: N[C@@H]1[C@H]2CN(c3cnc(C(=O)Nc4cc(F)cc5cccnc45)cn3)C[C@@H]12
Cmax [1]: 1620 ng/mL
Activity (Panc02 [2]): inactive
Activity (MIA PaCa-2 [3]): Active
Activity (MIA PaCa-2 [4]): Active
Activity (HCT-116 [5]): Active
IC50 (MIA PaCa-2 [6]): 600 nM
half-life [7]: > 60 min
Activity (MIA PaCa-2 [8]): Active
Activity (KPC2): Active
Activity (HCT-116 [9]): Active
Activity (MIA PaCa-2 [10]): Active
Activity (HCT-116 [11]): Active
Activity (Panc02 [12]): inactive
AUC at 24 h [13]: 3780 ng·h/mL
Activity (HCT-116 [14]): Active
IC50 (Panc02 [15]): 8 µM
Activity (HCT-116 [16]): Active
Activity (MIA PaCa-2 [17]): Active
Vd [18]: 14.6 L/kg
Activity (HCT-116 [19]): Active
Activity (HCT-116 [20]): Active
Activity (MIA PaCa-2 [21]): Active
Activity (BXPC-3 [22]): Active
Activity (HCT-116 [23]): Active
Activity (HCT-116 [24]): Active
Activity (BXPC-3 [25]): Active
Activity (MIA PaCa-2 [26]): Active
IC50 (SU.86.86): 1100 nM
Activity (MIA PaCa-2 [27]): Active
Activity (MIA PaCa-2 [28]): Active
Activity (MIA PaCa-2 [29]): Active
half-life [30]: 180 min
Activity (HCT-116 [31]): Active
Activity (HCT-116 [32]): Active
Activity (MIA PaCa-2 [33]): Active
Activity (MIA PaCa-2 [34]): inactive
Activity (HCT-116 [35]): Active
Activity (MIA PaCa-2 [36]): Active
Activity (HCT-116 [37]): inactive
Activity (HCT-116 [38]): Active
Activity (HCT-116 [39]): Active

Cmax [1]: 3460 ng/mL
half-life [7]: > 60 min
AUC at 24 h [13]: 6640 ng·h/mL
Vd [18]: 7.1 L/kg
half-life [30]: 168 min
SMILES: C[C@@H]1OCC2(CCN(c3cnc(C(=O)Nc4cc(F)cc5cccnc45)cn3)CC2)[C@@H]1N
Activity (Panc02 [2]): inactive
Activity (MIA PaCa-2 [3]): Active
Activity (MIA PaCa-2 [4]): Active
Activity (HCT-116 [5]): Active
IC50 (MIA PaCa-2 [6]): 1900 nM
Activity (MIA PaCa-2 [8]): Active
Activity (KPC2): Active
Activity (HCT-116 [9]): Active
Activity (MIA PaCa-2 [10]): Active
Activity (HCT-116 [11]): Active
Activity (Panc02 [12]): inactive
Activity (HCT-116 [14]): Active
IC50 (Panc02 [15]): 2.1 µM
Activity (HCT-116 [16]): Active
Activity (MIA PaCa-2 [17]): Active
Activity (HCT-116 [19]): Active
Activity (HCT-116 [20]): Active
Activity (MIA PaCa-2 [21]): Active
Activity (BXPC-3 [22]): Active
Activity (HCT-116 [23]): Active
Activity (HCT-116 [24]): Active
Activity (BXPC-3 [25]): Active
Activity (MIA PaCa-2 [26]): Active
IC50 (SU.86.86): 800 nM
Activity (MIA PaCa-2 [27]): Active
Activity (MIA PaCa-2 [28]): Active
Activity (MIA PaCa-2 [29]): Active
Activity (HCT-116 [31]): Active
Activity (HCT-116 [32]): Active
Activity (MIA PaCa-2 [33]): Active
Activity (MIA PaCa-2 [34]): inactive
Activity (HCT-116 [35]): Active
Activity (MIA PaCa-2 [36]): Active
Activity (HCT-116 [37]): inactive
Activity (HCT-116 [38]): Active
Activity (HCT-116 [39]): Active
